Values joined by “and” are separate entries in the source; they are usually repeats but may differ in a detail not shown here. Equal values may be shown once.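 Cells were grown in 96-well plates and exposed to each compound for 48 hours at five concentrations; endpoints were interpolated linearly between bracketing concentrations, or set to the highest concentration if not reached. GI50 = concentration required for 50% inhibition of growth. TGI: total growth inhibition.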
Assays:
Experiment in all cases: NCI anticancer screen, dose series, 48 h
COLO 205 colon = tested on: COLO 205 colon
DMS 114 small cell lung = tested on: DMS 114 small cell lung
HCT-116 colon = tested on: HCT-116 colon
LOX IMVI melanoma = tested on: LOX IMVI melanoma
NCI-H23 lung = tested on: NCI-H23 lung
OVCAR-4 ovarian = tested on: OVCAR-4 ovarian
SF-268 CNS = tested on: SF-268 CNS
SF-295 CNS = tested on: SF-295 CNS
SF-539 CNS = tested on: SF-539 CNS
SNB-78 CNS = tested on: SNB-78 CNS

O=C(/C=C/c1ccccc1O)c1ccccc1O
TGI (COLO 205 colon): > 100 µM
TGI (DMS 114 small cell lung): > 100 µM
TGI (HCT-116 colon): > 100 µM
TGI (LOX IMVI melanoma): > 100 µM
TGI (NCI-H23 lung): > 100 µM
TGI (OVCAR-4 ovarian): > 100 µM
TGI (SF-268 CNS): > 100 µM
TGI (SF-295 CNS): > 100 µM
TGI (SF-539 CNS): > 100 µM
TGI (SNB-78 CNS): > 100 µM

Cc1ccc(Cc2c(=O)[nH]nc3ccccc23)cc1
TGI (COLO 205 colon): > 100 µM
TGI (DMS 114 small cell lung): > 100 µM
TGI (HCT-116 colon): > 100 µM
TGI (LOX IMVI melanoma): > 100 µM
TGI (NCI-H23 lung): > 100 µM
TGI (OVCAR-4 ovarian): > 100 µM
TGI (SF-268 CNS): > 100 µM
TGI (SF-295 CNS): > 100 µM
TGI (SF-539 CNS): > 100 µM
TGI (SNB-78 CNS): > 100 µM

COC(=O)c1cc2c(s1)C(=O)c1ccccc1-2
TGI (COLO 205 colon): > 100 µM
TGI (DMS 114 small cell lung): > 100 µM
TGI (HCT-116 colon): > 100 µM
TGI (LOX IMVI melanoma): > 100 µM
TGI (NCI-H23 lung): > 100 µM
TGI (OVCAR-4 ovarian): > 100 µM
TGI (SF-268 CNS): > 100 µM
TGI (SF-295 CNS): > 100 µM
TGI (SF-539 CNS): > 100 µM
TGI (SNB-78 CNS): > 100 µM

COC(=O)C(=Cc1cc(OC)ccc1OC)C(=O)OC
TGI (COLO 205 colon): 34.1 µM
TGI (DMS 114 small cell lung): 53.1 µM
TGI (LOX IMVI melanoma): 50.1 µM
TGI (OVCAR-4 ovarian): 51.6 µM
TGI (SF-268 CNS): > 100 µM
TGI (SF-295 CNS): 82.1 µM
TGI (SF-539 CNS): 65.2 µM
TGI (SNB-78 CNS): > 100 µM

CCCN=C(N)NC#N
TGI (COLO 205 colon): 32.9 µM
TGI (DMS 114 small cell lung): 35.8 µM
TGI (HCT-116 colon): > 100 µM
TGI (NCI-H23 lung): > 100 µM
TGI (OVCAR-4 ovarian): > 100 µM
TGI (SF-268 CNS): > 100 µM
TGI (SF-295 CNS): > 100 µM
TGI (SF-539 CNS): > 100 µM
TGI (SNB-78 CNS): > 100 µM

COc1ccc(CN2C(=O)/C(=C\C(=O)c3ccc(OCCN4CCCCC4)cc3)c3ccccc32)cc1
GI50 (COLO 205 colon): 1.86 µM
TGI (COLO 205 colon): 3.97 µM
GI50 (HCT-116 colon): 1.54 µM
TGI (HCT-116 colon): 2.88 µM
GI50 (LOX IMVI melanoma): 1.65 µM
TGI (LOX IMVI melanoma): 3.04 µM
GI50 (NCI-H23 lung): 6.68 µM
TGI (NCI-H23 lung): 21.6 µM
GI50 (OVCAR-4 ovarian): 2.62 µM
TGI (OVCAR-4 ovarian): 8.13 µM
GI50 (SF-268 CNS): 4.03 µM
TGI (SF-268 CNS): 19.5 µM
GI50 (SF-295 CNS): 13.8 µM
TGI (SF-295 CNS): 31.8 µM
GI50 (SF-539 CNS): 1.9 µM
TGI (SF-539 CNS): 3.67 µM

CC1(C)COC(c2cccnc2/C=N/O)=N1
TGI (COLO 205 colon): > 100 µM
TGI (HCT-116 colon): > 100 µM
TGI (LOX IMVI melanoma): > 100 µM
TGI (NCI-H23 lung): > 100 µM
TGI (OVCAR-4 ovarian): > 100 µM
TGI (SF-268 CNS): > 100 µM
TGI (SF-295 CNS): > 100 µM
TGI (SF-539 CNS): > 100 µM
TGI (SNB-78 CNS): > 100 µM

N#CC(=C1C=CC(=NO)C=C1)c1ccccc1
GI50 (COLO 205 colon): 6.33 µM
TGI (COLO 205 colon): 18.5 µM
GI50 (HCT-116 colon): 0.272 µM
TGI (HCT-116 colon): 0.794 µM
GI50 (LOX IMVI melanoma): 1.17 µM
TGI (LOX IMVI melanoma): 6.25 µM
GI50 (NCI-H23 lung): 9.92 µM
TGI (NCI-H23 lung): 34.1 µM
GI50 (OVCAR-4 ovarian): 3.02 µM
TGI (OVCAR-4 ovarian): 15.4 µM
GI50 (SF-268 CNS): 1.37 µM
TGI (SF-268 CNS): 6.06 µM
GI50 (SF-295 CNS): 2.91 µM
TGI (SF-295 CNS): 8.16 µM
GI50 (SF-539 CNS): 0.92 µM
TGI (SF-539 CNS): 3.37 µM

O=C(Nc1nc2ccc(C(F)(F)F)cc2s1)c1cc(Cl)ccc1O
GI50 (COLO 205 colon): 1.38 µM
TGI (COLO 205 colon): 4 µM
GI50 (HCT-116 colon): 0.414 µM
TGI (HCT-116 colon): 11 µM
GI50 (LOX IMVI melanoma): 1.33 µM
TGI (LOX IMVI melanoma): 15.8 µM
GI50 (NCI-H23 lung): 0.367 µM
TGI (NCI-H23 lung): 9.53 µM
GI50 (OVCAR-4 ovarian): 1.87 µM
TGI (OVCAR-4 ovarian): > 100 µM
GI50 (SF-268 CNS): 0.497 µM
TGI (SF-268 CNS): > 100 µM
GI50 (SF-295 CNS): 0.831 µM
TGI (SF-295 CNS): 3.16 µM
GI50 (SF-539 CNS): 1.49 µM
TGI (SF-539 CNS): > 100 µM

CCN(CC)CCCC(CNc1ccnc2cc(Cl)ccc12)c1ccc(Cl)cc1 (stereo unspecified)
GI50 (COLO 205 colon): 1.38 µM and 0.212 µM
TGI (COLO 205 colon): 2.94 µM and 0.466 µM
GI50 (HCT-116 colon): 1.54 µM and 0.925 µM
TGI (HCT-116 colon): 6.12 µM and 2.36 µM
GI50 (LOX IMVI melanoma): 0.764 µM and 0.353 µM
TGI (LOX IMVI melanoma): 2.13 µM and 1.36 µM
GI50 (NCI-H23 lung): 1.87 µM and 2.01 µM
TGI (NCI-H23 lung): 4.42 µM and 5.93 µM
GI50 (OVCAR-4 ovarian): 1.07 µM and 1.04 µM
TGI (OVCAR-4 ovarian): 4.28 µM and 3.36 µM
GI50 (SF-268 CNS): 1.56 µM and 1.71 µM
TGI (SF-268 CNS): 3.31 µM and 4.55 µM
GI50 (SF-295 CNS): 1.79 µM and 1.35 µM
TGI (SF-295 CNS): 3.54 µM and 2.76 µM
GI50 (SF-539 CNS): 1.23 µM and 1.52 µM
TGI (SF-539 CNS): 2.67 µM and 3.07 µM

N#CC(N)(C(=O)CCC(=O)Nc1cccc(Cl)c1)c1ccc(Cl)cc1 (stereo unspecified)
TGI (COLO 205 colon): > 100 µM
TGI (DMS 114 small cell lung): > 100 µM
TGI (HCT-116 colon): > 100 µM
TGI (NCI-H23 lung): > 100 µM
TGI (OVCAR-4 ovarian): > 100 µM
TGI (SF-268 CNS): > 100 µM
TGI (SF-295 CNS): > 100 µM
TGI (SF-539 CNS): > 100 µM
TGI (SNB-78 CNS): > 100 µM

CCC(C)n1ncn(-c2ccc(N3CCN(c4ccc(OCC5COC(Cn6cncn6)(c6ccc(Cl)cc6Cl)O5)cc4)CC3)cc2)c1=O (stereo unspecified)
GI50 (COLO 205 colon): 4.12 µM
TGI (COLO 205 colon): > 100 µM
GI50 (HCT-116 colon): 21.6 µM
TGI (HCT-116 colon): > 100 µM
GI50 (LOX IMVI melanoma): 9.41 µM
TGI (LOX IMVI melanoma): > 100 µM
GI50 (NCI-H23 lung): 27.8 µM
TGI (NCI-H23 lung): > 100 µM
GI50 (OVCAR-4 ovarian): 35.2 µM
TGI (OVCAR-4 ovarian): > 100 µM
GI50 (SF-268 CNS): 33.6 µM
TGI (SF-268 CNS): > 100 µM
GI50 (SF-295 CNS): 1.4 µM
TGI (SF-295 CNS): > 100 µM
GI50 (SF-539 CNS): 7.73 µM
TGI (SF-539 CNS): > 100 µM

Cc1ccc(NC(=O)C(=O)C(C(=O)c2ccc3ccccc3c2)C2OC(=O)c3ccccc32)cc1C (stereo unspecified)
TGI (COLO 205 colon): 32.6 µM
TGI (DMS 114 small cell lung): 41.3 µM
TGI (HCT-116 colon): 25.5 µM
TGI (LOX IMVI melanoma): 32.8 µM
TGI (NCI-H23 lung): 18 µM
TGI (OVCAR-4 ovarian): 40.6 µM
TGI (SF-268 CNS): 52.8 µM
TGI (SF-539 CNS): 11.4 µM

NC(=O)NC1C(c2ccccc2)=C1c1ccccc1
TGI (COLO 205 colon): 27.9 µM
TGI (HCT-116 colon): 38.7 µM
TGI (LOX IMVI melanoma): 38.4 µM
TGI (NCI-H23 lung): 61.4 µM
TGI (OVCAR-4 ovarian): 30.7 µM
TGI (SF-268 CNS): 32 µM
TGI (SF-295 CNS): 54.6 µM
TGI (SF-539 CNS): 31.2 µM

CN(C)c1nc2ccccc2[nH]1
TGI (COLO 205 colon): > 100 µM
TGI (DMS 114 small cell lung): > 100 µM
TGI (LOX IMVI melanoma): > 100 µM
TGI (NCI-H23 lung): > 100 µM
TGI (OVCAR-4 ovarian): > 100 µM
TGI (SF-268 CNS): > 100 µM
TGI (SF-295 CNS): > 100 µM
TGI (SF-539 CNS): > 100 µM

NC(=Nc1c([N+](=O)[O-])cnc2ccccc12)N1CCOCC1
TGI (COLO 205 colon): > 100 µM
TGI (HCT-116 colon): > 100 µM
TGI (LOX IMVI melanoma): > 100 µM
TGI (NCI-H23 lung): > 100 µM
TGI (OVCAR-4 ovarian): > 100 µM
TGI (SF-268 CNS): > 100 µM
TGI (SF-295 CNS): > 100 µM
TGI (SF-539 CNS): > 100 µM

CS(=O)(=O)Nc1ccc2c(c1)oc(=O)c1ccccc12
TGI (COLO 205 colon): > 100 µM
TGI (HCT-116 colon): > 100 µM
TGI (LOX IMVI melanoma): > 100 µM
TGI (NCI-H23 lung): > 100 µM
TGI (OVCAR-4 ovarian): > 100 µM
TGI (SF-268 CNS): > 100 µM
TGI (SF-295 CNS): > 100 µM
TGI (SF-539 CNS): > 100 µM

COc1cc(C#CC(=O)OC/C=C/c2ccc3c(c2)OCO3)cc(OC)c1OC
TGI (COLO 205 colon): 35.7 µM
TGI (HCT-116 colon): > 100 µM
TGI (LOX IMVI melanoma): 47.3 µM
TGI (NCI-H23 lung): 58.5 µM
TGI (OVCAR-4 ovarian): > 100 µM
TGI (SF-268 CNS): 59.5 µM
TGI (SF-295 CNS): > 100 µM
TGI (SF-539 CNS): 44.5 µM

O=C1NC(=O)C(c2cnc3ccccn23)=C1c1cn2c3c(cc(F)cc13)CN(C(=O)N1CCCCC1)CC2
GI50 (COLO 205 colon): 11.4 µM
TGI (COLO 205 colon): 36.9 µM
GI50 (HCT-116 colon): 3.35 µM
TGI (HCT-116 colon): > 89.8 µM
TGI (LOX IMVI melanoma): 15.8 µM
GI50 (NCI-H23 lung): 17.2 µM
TGI (NCI-H23 lung): 52.3 µM
GI50 (OVCAR-4 ovarian): 1.5 µM
TGI (OVCAR-4 ovarian): > 63.4 µM
GI50 (SF-268 CNS): 13.4 µM
TGI (SF-268 CNS): 39.4 µM
GI50 (SF-295 CNS): 0.142 µM
TGI (SF-295 CNS): 33.9 µM
GI50 (SF-539 CNS): 2.74 µM
TGI (SF-539 CNS): 24.4 µM

O=C(CCn1[nH]c(=O)c(Cl)c(Cl)c1=O)NO
TGI (COLO 205 colon): > 100 µM
TGI (DMS 114 small cell lung): > 100 µM
TGI (LOX IMVI melanoma): > 100 µM
TGI (NCI-H23 lung): > 100 µM
TGI (OVCAR-4 ovarian): > 100 µM
TGI (SF-268 CNS): > 100 µM
TGI (SF-295 CNS): > 100 µM
TGI (SF-539 CNS): > 100 µM

Reference: PubChem BioAssay (NCI)
